From ChEMBL document CHEMBL5154793, “Discovery of Thieno[2,3-d]pyrimidine-based KRAS G12D inhibitors as potential anticancer agents via combinatorial virtual screening” (Eur J Med Chem, 2022)
Activity calls are given as the source filed them. The calls are words filed in the database; no cut-off is given here.

Tests used:
[1] = test system: PANC-1; assay: Antiproliferative activity against human PANC1 cells harboring KRAS G12D mutant assessed as inhibition of cell viability after 24 hrs by MTT assay; type: functional, cell-based; settings: PANC-1, 24 h
[2] = test system: CT26; assay: Antitumor activity against mouse CT26 cells allografted in BALB/c mouse assessed as inhibition of tumor growth at 40 mg/kg, ip administered once a day for 10 days; type: functional; settings: CT26, 240 h, time 10 day, read-out: TGI
[3] = Toxicity in BALB/c mouse allografted with mouse CT26 cells assessed as body weight loss at 40 to 60 mg/kg, ip administered once a day for 10 days; type: organism-based; settings: in vivo, 240 h, dose 40-60 mg/kg, time 10 day
[4] = test system: CT26; assay: In vivo inhibition of KRAS G12D mutant (unknown origin) mediated downstream signalling in mouse CT26 cells allografted in BALB/c mouse assessed as decrease in phosphorylation level of Raf in tumor tissue at 40 to 60 mg/kg, ip administered once a day for 10 days by Western blotting analysis; type: functional, organism-based; settings: dose 40-60 mg/kg, time 10.0 day
[5] = test system: HeLa; assay: Antiproliferative activity against human HeLa cells harboring wild type KRAS assessed as inhibition of cell viability after 24 hrs by MTT assay; type: functional, cell-based
[6] = test system: SW1990; assay: Induction of apoptosis in human SW1990 cells assessed as necrotic cells at 2 uM measured after 24 hrs by PI/Annexin V staining based flow cytometric analysis (reference value: 2.69%); type: functional
[7] = test system: SW1990; assay: Induction of apoptosis in human SW1990 cells assessed as viable cells at 4 uM measured after 24 hrs by PI/Annexin V staining based flow cytometric analysis (reference value: 82.9%); type: functional; settings: read-out: Activity
[8] = test system: SW1990; assay: Induction of apoptosis in human SW1990 cells assessed as necrotic cells at 8 uM measured after 24 hrs by PI/Annexin V staining based flow cytometric analysis (reference value: 2.69%); type: functional
[9] = test system: CT26; assay: Induction of apoptosis in mouse CT26 cells assessed as late apoptotic cells at 2 uM measured after 24 hrs by PI/Annexin V staining based flow cytometric analysis (reference value: 3.21%); type: functional
[10] = test system: CT26; assay: Induction of apoptosis in mouse CT26 cells assessed as necrotic cells at 2 uM measured after 24 hrs by PI/Annexin V staining based flow cytometric analysis (reference value: 0.789%); type: functional
[11] = test system: CT26; assay: Induction of apoptosis in mouse CT26 cells assessed as late apoptotic cells at 4 uM measured after 24 hrs by PI/Annexin V staining based flow cytometric analysis (reference value: 3.21%); type: functional
[12] = test system: CT26; assay: Induction of apoptosis in mouse CT26 cells assessed as early apoptotic cells at 8 uM measured after 24 hrs by PI/Annexin V staining based flow cytometric analysis (reference value: 11.2%); type: functional
[13] = test system: CT26; assay: Induction of apoptosis in mouse CT26 cells assessed as late apoptotic cells at 8 uM measured after 24 hrs by PI/Annexin V staining based flow cytometric analysis (reference value: 3.21%); type: functional
[14] = test system: CT26; assay: Induction of apoptosis in mouse CT26 cells assessed as necrotic cells at 8 uM measured after 24 hrs by PI/Annexin V staining based flow cytometric analysis (reference value: 0.789%); type: functional
[15] = test system: GTPase KRas (Homo sapiens), P01116 [G12D]; assay: Binding affinity to human his-tagged KRAS G12D mutant assessed as change in enthalpy by isothermal titration calorimetry
[16] = test system: GTPase KRas (Homo sapiens), P01116 [G12D]; assay: Binding affinity to human his-tagged KRAS G12D mutant assessed as gibbs free energy change by isothermal titration calorimetry
[17] = test system: GTPase KRas (Homo sapiens), P01116 [G12D]; assay: Binding affinity to human his-tagged KRAS G12D mutant assessed as change in entropy by isothermal titration calorimetry
[18] = test system: SW1990; assay: Inhibition of GTP bound KRAS in human SW1990 cells assessed as down regulation of KRAS-GTP protein level incubated for 12 hrs by Pull-Down based Western blotting analysis; type: functional, cell-based; settings: dose 10-20 µM, DDE = dose-dependent effect
[19] = test system: GTPase KRas (Homo sapiens), P01116 [G12D]; assay: Inhibition of KRAS G12D mutant downstream signalling in human SW1990 cells assessed as suppression of ERK phosphorylation incubated for 24 hrs by pull down based Western blotting analysis; type: cell-based; settings: dose <= 16.0 µM, DDE = dose-dependent effect
[20] = test system: CT26; assay: Inhibition of KRAS G12D mutant (unknown origin) downstream signalling in mouse CT26 cells assessed as suppression of ERK phosphorylation incubated for 24 hrs by pull down based Western blotting analysis; type: cell-based; settings: dose <= 16.0 µM, DDE = dose-dependent effect
[21] = test system: CT26; assay: Inhibition of KRAS G12D mutant (unknown origin) downstream signalling in mouse CT26 cells assessed as suppression of Raf phosphorylation incubated for 24 hrs by pull down based Western blotting analysis; type: cell-based; settings: dose <= 16.0 µM, DDE = dose-dependent effect
[22] = test system: CT26; assay: Antitumor activity against mouse CT26 cells allografted in BALB/c mouse assessed as inhibition of tumor growth at 60 mg/kg, ip administered once a day for 10 days; type: functional; settings: CT26, 240 h, time 10 day, read-out: TGI
[23] = test system: CT26; assay: Antitumor activity against mouse CT26 cells allografted in BALB/c mouse assessed as tumor volume at 60 mg/kg, ip administered once a day for 10 days; type: functional; settings: time 10 day
[24] = test system: CT26; assay: In vivo inhibition of KRAS G12D mutant (unknown origin) mediated downstream signalling in mouse CT26 cells allografted in BALB/c mouse assessed as decrease in phosphorylation level of ErK in tumor tissue at 40 to 60 mg/kg, ip administered once a day for 10 days by Western blotting analysis; type: functional, organism-based; settings: dose 40-60 mg/kg, time 10.0 day
[25] = Toxicity in BALB/c mouse allografted with mouse CT26 cells assessed as effect on liver morphology at 40 to 60 mg/kg, ip administered once a day for 10 days by H and E staining based microscopic analysis; type: organism-based; settings: in vivo, 240 h, dose 40-60 mg/kg, time 10 day
[26] = Toxicity in BALB/c mouse allografted with mouse CT26 cells assessed as neutrophil level at 40 to 60 mg/kg, ip administered once a day for 10 days (reference value: 1.080 to 1.250 10^9/L); type: organism-based; settings: in vivo, 240 h, dose 40-60 mg/kg, time 10 day
[27] = Toxicity in BALB/c mouse allografted with mouse CT26 cells assessed as HGB level at 40 to 60 mg/kg, ip administered once a day for 10 days (reference value: 0.319 to 108 g/L); type: organism-based; settings: in vivo, 240 h, dose 40-60 mg/kg, time 10 day
[28] = Toxicity in BALB/c mouse allografted with mouse CT26 cells assessed as MCHC level at 40 to 60 mg/kg, ip administered once a day for 10 days (reference value: 338 to 361 g/L); type: organism-based; settings: in vivo, 240 h, dose 40-60 mg/kg, time 10 day
[29] = Toxicity in BALB/c mouse allografted with mouse CT26 cells assessed as basophil level at 40 to 60 mg/kg, ip administered once a day for 10 days (reference value: 0.050 to 40.3 10^9/L); type: organism-based; settings: in vivo, 240 h, dose 40-60 mg/kg, time 10 day
[30] = Toxicity in BALB/c mouse allografted with mouse CT26 cells assessed as lymphocyte level at 40 to 60 mg/kg, ip administered once a day for 10 days (reference value: 5.6 to 35.2 %); type: organism-based; settings: in vivo, 240 h, dose 40-60 mg/kg, time 10 day
[31] = Toxicity in BALB/c mouse allografted with mouse CT26 cells assessed as eosinophil level at 40 to 60 mg/kg, ip administered once a day for 10 days (reference value: 16 to 17.3 %); type: organism-based; settings: in vivo, 240 h, dose 40-60 mg/kg, time 10 day
[32] = Toxicity in BALB/c mouse allografted with mouse CT26 cells assessed as PCT level at 40 to 60 mg/kg, ip administered once a day for 10 days (reference value: 0.226 to 6.4 %); type: organism-based; settings: in vivo, 240 h, dose 40-60 mg/kg, time 10 day

Sequence of GTPase KRas (Homo sapiens), P01116 [G12D] (P01116 whole entry G12D, looked up): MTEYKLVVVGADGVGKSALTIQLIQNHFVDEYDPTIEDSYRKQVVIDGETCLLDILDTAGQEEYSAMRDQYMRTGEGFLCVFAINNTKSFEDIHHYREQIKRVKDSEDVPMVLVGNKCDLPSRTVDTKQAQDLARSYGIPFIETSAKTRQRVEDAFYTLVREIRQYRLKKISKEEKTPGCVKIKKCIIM

IC50 [1]: 2.3 µM
IC50 [5]: 7.4 µM
deltaH [15]: -111 kJ/mol
deltaG [16]: -42.7 kJ/mol
-TdeltaS [17]: 68.6 kJ/mol
Activity [19]: Dde
SMILES: COc1ccc(C(F)(F)F)cc1-c1cc2c(N3CC4CCC(C3)N4)ncnc2s1
inhibition in vivo at 40 mg/kg [2]: 42%
Activity [3]: Non-Toxic
Activity [4]: Active
Activity [6]: 3.11%
viability at 4 µM [7]: 47.9%
Activity [8]: 1.81%
Activity [9]: 4.59%
Activity [10]: 1.39%
Activity [11]: 20.9%
Activity [12]: 24.4%
Activity [13]: 60.4%
Activity [14]: 6.61%
inhibition [18]: Dde
Activity [20]: Dde
Activity [21]: Dde
inhibition in vivo at 60 mg/kg [22]: 53%
Activity [23]: 11%
Activity [24]: Active
Activity [25]: Non-Toxic
Activity [26]: 1.92 10^9/L
Activity [27]: 0.41 g/L
Activity [28]: 336 g/L
Activity [29]: 0.01 10^9/L
Activity [30]: 4.9%
Activity [31]: 0.2%
Activity [32]: 0.372%
